Test results as given in patent US20250213547A1, “METHODS OF TREATING NEUROLOGICAL DISEASES” (priority 2022, published 2025).

Legend:
[1] = Multiple rising dose study: PK of soticlestat and M-I (day 1, day 14), oral solution; type: in vivo, human; details: for AUC24 mean / AUC∞, mean / Cmax, mean / Tmax, median: soticlestat plasma; for CLR, mean: soticlestat urine
Description: The second trial was a phase I, randomized, double-blind, placebo-controlled study, with soticlestat administered by oral solution at multiple escalating doses in healthy subjects. The criteria for subject inclusion and exclusion are similar to those of the first trial described above but with the added screening of female subjects for pregnancy. […] After a cohort finished their dosage regimen, a decision was made whether to escalate the dosage for the next cohort. Cohorts 1, 2, and 3 received 100, 300, and 400 mg once daily (QD), respectively, and cohorts 4 and 5 received 300 mg twice daily (BID) or 600 mg QD. The regimen for cohorts 4 and 5 were discontinued after subjects began experiencing adverse neurological and psychiatric events. Example 6 describes the PK protocol and the results.
The blood sampling protocol included obtaining a 4-ml blood sample for PK analysis 30 minutes pre-dose, and at 10, 15, 20, and 30 minutes and 1, 1.5, 2, 3, 4, 6, 8, 10, 12, 16, and 24 hours post-dose on days 1 and 14. Cohort 3, receiving 400 mg QD, had additional blood samples taken on day 7 at 15 and 30 minutes, and 1, 2, 4, and 8 hours post-dose. […] The median time for Cmax (Tmax) across the dose range varied between 0.33-0.5 hours. […] The 24 hour plasma area under the concentration-time curve (AUC24) for doses 100, 300, and 400 mg at day 14 were 458, 2690, and 2800 ng×h/mL, respectively. The concentration time profiles were similar from day 1 through day 14.
This study administered soticlestat to healthy male and female adults in an oral solution at escalating daily dose levels. […] Eight subjects were randomly assigned to one of five cohorts, with two subjects in each cohort receiving a placebo. Single daily dosing occurred in the morning after a minimum fast of 8 hours and subjects continued fasting until 2 hours post-dose. […] After a full review of the safety data from cohorts 1 and 2, including vitals, physical examination, BMI, adverse events, and clinical laboratory tests, […] were approved to receive increased dosages of 300 mg twice daily (BID) and 600 mg once daily (QD), respectively.
All cohorts had additional blood samples taken 30 minutes pre-dose on days 7, 11, 12, and 13. […] had additional blood samples taken for PK data on day 7 at post-dose times 15 and 30 minutes, and 1, 2, 4, and 8 hours. The PK parameter analysis was performed as described in example 2. […] A power model estimated the dose proportionality for Cmax and AUC∞ on day 1 and day 14 for cohorts receiving once daily dosing. An analysis of variance (ANOVA) assessed the variation in time dependency for Cmax and AUC∞ on day 1 and day 14 for cohorts receiving once daily dosing.
Pre-dose urine samples were collected for PK analysis for 12 hours pre-dose of day 1 and for 2 hours pre-dose of day 14. Post-dose urine samples were collected at intervals of 0-6, 6-12, and 12-24 hours.

[2] = tested on: plasma 24HC; test: Adult DEE patients: pharmacodynamics, plasma 24HC; type: in vivo, human; details: for mean plasma 24HC decrease from baseline: Part A
Description: Blood sample collection and analyses for measuring 24HC was performed as previously described in example 5.

O=C(c1cccnc1-c1ccncc1)N1CCC(O)(Cc2ccccc2)CC1 [soticlestat]
accumulated exposure, AUC24 day 14 ([1]; both, human, in vivo, 300 mg): ~1.42 fold | accumulated exposure, Cmax day 14 ([1]; both, human, in vivo, 300 mg, 14 days): approximately 1.74 fold | t½z, mean ([1]; both, human, in vivo, 600 mg): 290 min | CL/F, mean ([1]; human, in vivo, 600 mg): 194 L/h | AUC24 mean ([1]; 100 mg QD day 1): 446 ng·h/mL | AUC∞, mean ([1]; 100 mg QD day 1): 451 ng·h/mL | Cmax, mean ([1]; 100 mg QD day 1): 468 ng/mL | Tmax, median ([1]; 100 mg QD day 1): 25.2 min | AUC24 mean ([1]; 100 mg QD day 14): 458 ng·h/mL | AUC∞, mean ([1]; 100 mg QD day 14): 509 ng·h/mL | Cmax, mean ([1]; 100 mg QD day 14): 481 ng/mL | Tmax, median ([1]; 100 mg QD day 14): 25.2 min | AUC24 mean ([1]; 300 mg BID day 1 (first dose)): 1460 ng·h/mL | AUC∞, mean ([1]; 300 mg BID day 1 (first dose)): 1510 ng·h/mL | Cmax, mean ([1]; 300 mg BID day 1 (first dose)): 1330 ng/mL | Tmax, median ([1]; 300 mg BID day 1 (first dose)): 26.4 min | AUC24 mean ([1]; 300 mg QD day 1): 2030 ng·h/mL | AUC∞, mean ([1]; 300 mg QD day 1): 2040 ng·h/mL | Cmax, mean ([1]; 300 mg QD day 1): 2020 ng/mL | Tmax, median ([1]; 300 mg QD day 1): 25.2 min | AUC24 mean ([1]; 300 mg QD day 14): 2690 ng·h/mL | AUC∞, mean ([1]; 300 mg QD day 14): 2840 ng·h/mL | Cmax, mean ([1]; 300 mg QD day 14): 3100 ng/mL | Tmax, median ([1]; 300 mg QD day 14): 19.8 min | AUC24 mean ([1]; 400 mg QD day 1): 2500 ng·h/mL | AUC∞, mean ([1]; 400 mg QD day 1): 2520 ng·h/mL | Cmax, mean ([1]; 400 mg QD day 1): 2630 ng/mL | Tmax, median ([1]; 400 mg QD day 1): 19.8 min | AUC24 mean ([1]; 400 mg QD day 14): 2800 ng·h/mL | AUC∞, mean ([1]; 400 mg QD day 14): 3090 ng·h/mL | Cmax, mean ([1]; 400 mg QD day 14): 2930 ng/mL | Tmax, median ([1]; 400 mg QD day 14): 19.8 min | AUC24 mean ([1]; 600 mg QD day 1): 4180 ng·h/mL | AUC∞, mean ([1]; 600 mg QD day 1): 4220 ng·h/mL | Cmax, mean ([1]; 600 mg QD day 1): 3060 ng/mL | Tmax, median ([1]; 600 mg QD day 1): 30 min | CLR, mean ([1]; 100 mg QD day 1): 0.220 L/h | CLR, mean ([1]; 100 mg QD day 14): 0.200 L/h | CLR, mean ([1]; 300 mg BID day 1): 0.350 L/h | CLR, mean ([1]; 300 mg QD day 1): 0.300 L/h | CLR, mean ([1]; 300 mg QD day 14): 0.220 L/h | CLR, mean ([1]; 400 mg QD day 1): 0.370 L/h | CLR, mean ([1]; 400 mg QD day 14): 0.380 L/h | CLR, mean ([1]; 600 mg QD day 1): 0.340 L/h | mean plasma 24HC decrease from baseline ([2]; day 11): 69.76% | mean plasma 24HC decrease from baseline ([2]; day 21): 76.88% | plasma 24HC mean percent change from baseline ([2]; day 11): −69.76% | plasma 24HC mean percent change from baseline ([2]; day 21): −76.88% | plasma 24HC mean percent change from baseline ([2]; day 85): −80.97% | mean percent decrease of plasma 24HC ([2]; end of Part B (day 85)): 80.97%
